In this assay the test system is NHEKs, differentially expressed genes. The assay can be described thus: RNA-Seq transcriptomic profile of NHEKs. The class given is cell-based, human. To be noted: U1 + peptide in comparison to U1 + LL-34 parent, protein-protein interaction networks from RNA-Seq. The text has this:
RNA-Seq was utilized to obtain a global transcriptomic profile and map unique immune pathways in NHEKs exposed to U1 dsRNA, LL-34 parent, Pep I24A, Pep L31A, and a combination of U1 dsRNA and LL-34 parent, Pep I24A, or Pep L31A. […] Similarly, 448 and 325 unique differentially regulated genes were observed after U1 + I24A and U1 + L31A treatments, respectively (Fig. 3, A and B and Fig. S2, A and B). […] These pathways included type 1 interferon signaling, cytokine signaling, response to external biotic stimulus, and cytokine-mediated signaling pathway. […] We verified the repression of mitochondrial antiviral signaling (MAVS) with immunoblot analysis. NHEKs were treated with U1 dsRNA, LL-34 parent, Pep I24A, Pep L31A, or with a combination of U1 and LL-34 parent, U1 and Pep I24A, or U1 and Pep L31A (Fig. 3E).
RNA was extracted using a PureLink RNA Mini Kit (Life Technologies). Isolated RNA was submitted to the UCSD IGM Genomics Center for RNA-Seq performed on a high-output run V4 platform (Illumina) with a single-read 100 cycle runs. Data alignment was done on Partek Flow software (Partek) with Tophat2 (version 2.0.8). Gene Ontology enrichment analysis was performed on differentially regulated genes (≥1.5-fold) using Partek Flow software. The protein–protein interaction network was generated in the InnateDB database ([44]).

Residues, ends and D or L forms follow the SMILES beside them.

Results on 1 compound are retold here after PMC8214221, “Sequence determinants in the cathelicidin LL-37 that promote inflammation via presentation of RNA to scavenger receptors” (The Journal of Biological Chemistry, 2021).

For the compound `CC[C@H](C)[C@H](NC(=O)[C@H](CCCCN)NC(=O)[C@H](CCC(=O)O)NC(=O)[C@H](CCCCN)NC(=O)[C@H](CO)NC(=O)[C@H](CCCCN)NC(=O)[C@H](CCCNC(=N)N)NC(=O)[C@H](Cc1ccccc1)NC(=O)[C@H](Cc1ccccc1)NC(=O)[C@H](CC(=O)O)NC(=O)CNC(=O)[C@H](CC(C)C)NC(=O)[C@@H](N)CC(C)C)C(=O)NCC(=O)N[C@@H](CCCCN)C(=O)N[C@@H](CCC(=O)O)C(=O)N[C@@H](Cc1ccccc1)C(=O)N[C@@H](CCCCN)C(=O)N[C@@H](CCCNC(=N)N)C(=O)N[C@H](C(=O)N[C@H](C(=O)N[C@@H](CCC(N)=O)C(=O)N[C@@H](CCCNC(=N)N)C(=O)N[C@@H](C)C(=O)N[C@@H](CCCCN)C(=O)N[C@@H](CC(=O)O)C(=O)N[C@@H](Cc1ccccc1)C(=O)N[C@@H](CC(C)C)C(=O)N[C@@H](CCCNC(=N)N)C(=O)N[C@@H](CC(N)=O)C(=O)N[C@@H](CC(C)C)C(=O)N[C@H](C(=O)N1CCC[C@H]1C(=O)N[C@@H](CCCNC(=N)N)C(=O)O)C(C)C)C(C)C)[C@@H](C)CC` [LL-34—I24A] (H-LLGDFFRKSKEKIGKEFKRIVQRAKDFLRNLVPR-OH), the “Type I interferon signaling and RIGI antiviral pathway genes (STAT, ISG15, OAS1, IRF2, DDX58, MAVS)” value was “repressed”.
